# The supplement of paper PMC10307832
# Columns and labels:
# Test in all cases: relative viability (nuclei count vs DMSO), 5 days (fraction); higher = more cells survive
# [1] = compound: CC1(COc2ccc3c(c2)ncn3-c2ccc3cccc(N4CCC(N)CC4)c3n2)COC1 [Crenolanib] + Nc1ncn([C@H]2C[C@H](O)[C@@H](CO)O2)c(=O)n1 [Decitabine] (partner 2 µM)
# How it was run: (§1)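 Relative viability is defined as nuclei in treated wells over nuclei in vehicle wells. Duplicate plates were run and medians reported. Lung cancer cell lines in 1536-well plates were dosed by pin tool one day after seeding, with one drug or with a fixed anchor-drug dose plus five library-drug doses (not always all listed) in √10 steps, and nuclei were counted after 5 days.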
# [2] = compound: O=C1NC(=O)[C@@H](c2cn3c4c(cccc24)CCC3)[C@@H]1c1c[nH]c2ccccc12 [Tivantinib] + CC(=O)Nc1cccc(-n2c(=O)n(C3CC3)c(=O)c3c(Nc4ccc(I)cc4F)n(C)c(=O)c(C)c32)c1 [Trametinib] (partner 0.02 µM)
# How it was run: as §1
# [3] = compound: O=C1NC(=O)[C@@H](c2cn3c4c(cccc24)CCC3)[C@@H]1c1c[nH]c2ccccc12 [Tivantinib] + NC(=O)Nc1cc(-c2cccc(F)c2)sc1C(=O)N[C@H]1CCCNC1 [AZD7762] (partner 0.2 µM)
# How it was run: as §1
# [4] = compound: CC1(COc2ccc3c(c2)ncn3-c2ccc3cccc(N4CCC(N)CC4)c3n2)COC1 [Crenolanib] + CS(=O)(=O)N1CCN(Cc2cc3nc(-c4cccc5[nH]ncc45)nc(N4CCOCC4)c3s2)CC1 [Pictilisib] (partner 1 µM)
# How it was run: as §1
Cell Line,relative viability ([1]; first compound 0.01 µM),relative viability ([1]; first compound 0.03162 µM),relative viability ([1]; first compound 0.1 µM),relative viability ([1]; first compound 0.3162 µM),relative viability ([1]; first compound 1 µM),relative viability ([2]; first compound 0.01 µM),relative viability ([2]; first compound 0.03162 µM),relative viability ([2]; first compound 0.1 µM),relative viability ([2]; first compound 0.3162 µM),relative viability ([3]; first compound 0.01 µM),relative viability ([3]; first compound 0.03162 µM),relative viability ([3]; first compound 0.1 µM),relative viability ([3]; first compound 0.3162 µM),relative viability ([4]; first compound 0.01 µM),relative viability ([4]; first compound 0.03162 µM),relative viability ([4]; first compound 0.1 µM),relative viability ([4]; first compound 0.3162 µM),relative viability ([4]; first compound 1 µM)
201T,0.863,0.839,0.822,0.884,0.843,0.694,0.713,0.729,0.69,0.602,0.62,0.623,0.611,0.724,0.704,0.695,0.689,0.634
A549,0.208,0.258,0.282,0.221,0.293,,,,,,,,,0.608,0.545,0.554,0.689,0.506
A-427,0.573,,0.592,0.553,0.52,0.795,0.786,0.737,0.673,0.792,0.829,0.749,0.651,0.747,0.674,0.642,0.582,0.651
ABC-1,1.42,1.22,0.978,1.17,1.15,,,,,0.8,0.912,0.708,0.685,0.837,0.63,0.83,0.692,0.686
BEN,0.768,0.72,0.76,0.612,0.749,1.13,0.94,1.01,0.769,0.705,0.535,0.617,0.581,0.664,0.574,0.51,0.522,0.609
CAL-12T,,,,,,0.451,0.269,0.359,0.183,0.563,0.603,0.574,0.437,0.45,0.407,0.519,0.454,0.44
COR-L23,0.326,0.473,0.431,0.487,0.413,0.634,0.558,0.545,0.661,,,,,0.777,0.756,0.677,1.03,0.654
COR-L 105,0.684,0.669,0.698,0.682,0.675,0.425,0.412,0.455,0.356,,,,,0.455,0.363,0.341,0.514,0.411
Calu-6,,,,,,,,,,,,,,1.04,0.91,0.978,1.15,0.968
ChaGo-K-1,0.56,0.489,0.533,0.513,0.556,0.894,0.88,0.867,0.842,0.781,0.871,0.862,0.861,0.419,0.627,0.736,0.562,0.7
EBC-1,,,,,,,,,,,,,,0.469,0.423,0.333,0.357,0.422
EKVX,0.377,0.318,0.392,0.319,0.38,0.408,0.437,0.325,0.146,0.59,0.704,0.619,0.28,0.466,0.491,0.364,0.487,0.442
EMC-BAC-2,1.07,,0.957,1.11,0.963,0.907,0.934,0.879,0.868,1.14,1.09,1.08,1.22,0.552,0.523,0.492,0.578,0.495
EPLC-272H,0.455,0.391,0.339,0.391,0.358,0.346,0.27,0.265,0.227,0.278,0.284,0.21,0.268,,0.327,0.318,0.255,0.338
H3255,0.674,0.629,0.588,0.587,0.652,,0.5,0.642,0.234,0.968,0.73,0.902,,0.461,0.475,0.479,0.559,0.496
HARA,0.67,0.543,0.447,0.586,0.569,0.66,0.633,0.776,0.371,0.214,0.416,0.394,0.288,0.327,0.369,0.283,0.289,0.353
HCC-15,0.625,0.621,0.603,0.689,0.65,0.387,0.371,0.36,0.337,1.27,1.34,1.15,1.29,0.695,0.731,0.696,0.644,0.671
HCC-44,0.933,0.925,0.944,0.972,0.845,1.04,1.11,1.02,1.02,1.04,1.05,1.08,0.985,0.672,0.649,0.575,0.571,0.492
HCC-78,0.673,0.634,0.734,0.838,0.652,0.761,0.696,0.589,0.445,0.688,0.786,0.651,0.425,0.24,0.223,0.239,0.216,0.237
HCC-366,0.33,0.325,0.329,0.374,0.334,0.355,0.523,0.338,0.332,0.229,0.403,0.316,0.237,0.182,0.164,0.132,0.143,0.137
HCC-827,0.332,0.329,0.311,0.308,0.348,0.54,0.576,0.461,,0.186,0.238,0.297,,1.12,1.16,0.961,0.94,1.03
